Here are results for 14 compounds from patent publication US7101878B1 (Agouron Pharmaceuticals, Inc., priority 1998, dated 2006).

Data set [1] addresses T1, bovine GnRH receptor (Bos taurus, UniProt P32236).
T1 construct: membranes were prepared from bovine pituitary; from tissue; host or cells: bovine pituitary
T1 sequence (P32236 1-328): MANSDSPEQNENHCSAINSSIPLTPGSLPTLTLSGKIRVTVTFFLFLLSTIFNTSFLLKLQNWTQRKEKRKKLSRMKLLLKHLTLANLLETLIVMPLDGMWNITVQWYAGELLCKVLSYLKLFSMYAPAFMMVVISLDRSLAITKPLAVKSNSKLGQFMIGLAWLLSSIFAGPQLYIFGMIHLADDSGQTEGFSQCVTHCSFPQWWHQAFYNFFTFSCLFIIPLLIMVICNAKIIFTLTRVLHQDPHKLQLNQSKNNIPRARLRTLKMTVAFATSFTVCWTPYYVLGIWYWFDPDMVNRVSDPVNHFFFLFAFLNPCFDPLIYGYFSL
Kind of data set: Radioligand binding, 125I-GnRH-A, bovine pituitary membranes. The procedure, abridged: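 Bound label captured on 0.1% polyethyleneimine-treated GF/C filters, washed three times with PBS, counted. IC50 derived; identical set-up for every species.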

Data set [2] addresses Glucagon (Homo sapiens, UniProt P47871). Kind of data set: Selectivity: Glucagon.
The target of data set [3] is D2 Dopamine (Homo sapiens, UniProt P14416). The data set is described as follows: Selectivity: D2 Dopamine.
D2 Dopamine, sequence (P14416 whole entry): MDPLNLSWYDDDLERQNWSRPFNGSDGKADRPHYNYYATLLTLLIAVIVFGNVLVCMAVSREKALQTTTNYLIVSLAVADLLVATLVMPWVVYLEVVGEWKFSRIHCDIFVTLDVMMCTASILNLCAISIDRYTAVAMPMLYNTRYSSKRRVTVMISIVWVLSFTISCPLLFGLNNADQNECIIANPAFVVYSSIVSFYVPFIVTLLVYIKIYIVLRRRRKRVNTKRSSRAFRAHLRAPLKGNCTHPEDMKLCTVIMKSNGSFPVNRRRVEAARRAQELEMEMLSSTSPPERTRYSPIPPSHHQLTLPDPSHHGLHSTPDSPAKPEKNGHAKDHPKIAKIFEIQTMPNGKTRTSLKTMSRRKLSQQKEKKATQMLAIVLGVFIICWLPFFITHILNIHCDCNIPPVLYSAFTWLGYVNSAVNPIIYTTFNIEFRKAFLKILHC
The target in data set [4] is T2, rat GnRH receptor (Rattus norvegicus, UniProt P30969).
T2 sequence (P30969 1-327): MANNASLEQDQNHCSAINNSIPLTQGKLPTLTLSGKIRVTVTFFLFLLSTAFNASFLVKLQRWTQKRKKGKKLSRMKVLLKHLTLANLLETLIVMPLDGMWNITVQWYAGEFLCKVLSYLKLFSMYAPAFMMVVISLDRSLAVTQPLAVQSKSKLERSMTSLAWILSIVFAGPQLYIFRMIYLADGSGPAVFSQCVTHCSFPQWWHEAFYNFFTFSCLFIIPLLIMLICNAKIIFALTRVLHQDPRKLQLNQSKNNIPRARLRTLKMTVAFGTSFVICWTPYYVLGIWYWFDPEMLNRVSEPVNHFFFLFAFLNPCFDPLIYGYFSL
The data set is described as follows: Microphysiometry, extracellular acidification rate, GGH3 cells. In kind it is cell-based. As to the method: These cells have been extensively characterized previously (Kaiser et al., 1997). These cells were grown in low glucose Dulbecco's modified Eagle's medium (DMEM) containing: 100U/mL penicillin/streptomycin, 0.6 g/L G418 and 10% beat-inactivated fetal bovine serum
This cell line was provided by Dr. Stuart Sealfon, Mount Sinai Medical School New York, N.Y. These cells were grown in DMEM supplemented with 0.2 g/L G418 100 U/ml penicillin/streptomycin and 10% FBS. Both GGH3 and hGnRH-R/293 cells were utilized for both for both total inositol phosphate measurement and for microphysiometry assessment of compound efficacy.
The Cytosensor®Microphysiometer (Molecular Devices, Sunnyvale, Calif.) is a real-time, noninvasive, nonradioactive semiconductor-based system for monitoring the cellular responses to various stimuli. It is based on a pH-sensitive silicon sensor, the light-addressable potentiometric sensor which forms part of a microvolume flow chamber in which cultured cells are immobilized (Pitchford et al., 1995; Parce et al., 1989; Owicki, et al. 1994).
GGH3 cells were seeded in low-buffered minimal essential media (MEM, Sigma) containing 25 mM NaCl and 0.1% BSA at a density of 500,000 cells/capsule onto the polycarbonate membrane (3 μm porosity) of cell capsule cups (Molecular Devices, Sunnyvale, Calif.). Capsule cups were transferred to sensor chambers where cells were held in close apposition to a silicon sensor within a sensor chamber, which measures small changes in pH in the microvolume of the sensor chamber. Low-buffered medium was pumped continuously across the cells at a rate of approximately 100 μl/min from one of two fluid reservoirs. A selection valve determined which reservoir from which fluid was perifused onto the cells.
The Cytosensor®Microphysiometer generates a voltage signal, which is a linear function of pH, every second. In order to measure acidification rates, flow to the sensor chamber containing the cells was periodically interrupted, allowing for excreted acidic metabolites to build up in the extracellular fluid of the cells. In these experiments, cells were maintained at 37° C. on a two minute flow cycle with cells being perfused with media for 80 seconds followed by 40 seconds in which the flow of media was stopped. During this 40 second interval, acidification rates were measured for a 30 sec interval. In this fashion, a single acidification rate was calculated every two min. The Cytosensor®Microphysiometer device contains eight such sensor units, allowing for eight simultaneous experiments to be performed. Each unit was individually programmed utilizing a computer linked to the system.
GGH3 cells were initially equilibrated in the low-buffered MEM media for a period of 30-60 min in which basal acidification rates (measured as μV/sec), in the absence of any stimuli, were monitored. When the basal rate of acidification changed by less than ten percent over a period of twenty minutes, experiments were initiated. Time course experiments were performed to determine the optimal time for agonist exposure prior to acidification rate measurement and the duration of exposure needed to obtain peak acidification responses to various agonists. From these time course experiments, it was determined that cells should be exposed to GnRH peptide agonists at least one minute prior to collection of acidification rate data. Peak acidification rates usually occurred in the first two-minute exposure cycle. In order to capture the peak response to GnRH, cells were exposed to the agonist for a total of four minutes. […] All compounds were tested in a final concentration of 1% DMSO in low-buffered MEM media described above.

A short description of data set [5]: Metabolism rate, pmol/min/mg at 1 μM, human. In kind it is in vitro ADME. The conditions noted are these: 1 μM compound.
Data set [6] in a line: Metabolism rate, pmol/min/mg at 1 μM, rat male. In kind it is in vitro ADME. The following applies: 1 μM compound.
Setting [7] is: means ± SE of at least three experiments performed in duplicate, read-out: Bovine IC50.
The mark [8] stands for this setting: rat, readout (PI or pH) not stated.

Structures are written as SMILES. Like-named read-outs stand apart in the source and are kept apart here. Where a SMILES comes first, the peptide text is derived from it. [ ]: non-standard residue; d: D form. The star is where a group is joined. dPhe(4-Cl) = N[C@H](Cc1ccc(Cl)cc1)C(=O)O; d2Nal = N[C@H](Cc1ccc2ccccc2c1)C(=O)O; Lys(iPr) = CC(C)NCCCC[C@H](N)C(=O)O; d3Pal = N[C@H](Cc1cccnc1)C(=O)O; Nicotinoyl = O=C(c1cccnc1)*

Glucagon, sequence (P47871 26-477): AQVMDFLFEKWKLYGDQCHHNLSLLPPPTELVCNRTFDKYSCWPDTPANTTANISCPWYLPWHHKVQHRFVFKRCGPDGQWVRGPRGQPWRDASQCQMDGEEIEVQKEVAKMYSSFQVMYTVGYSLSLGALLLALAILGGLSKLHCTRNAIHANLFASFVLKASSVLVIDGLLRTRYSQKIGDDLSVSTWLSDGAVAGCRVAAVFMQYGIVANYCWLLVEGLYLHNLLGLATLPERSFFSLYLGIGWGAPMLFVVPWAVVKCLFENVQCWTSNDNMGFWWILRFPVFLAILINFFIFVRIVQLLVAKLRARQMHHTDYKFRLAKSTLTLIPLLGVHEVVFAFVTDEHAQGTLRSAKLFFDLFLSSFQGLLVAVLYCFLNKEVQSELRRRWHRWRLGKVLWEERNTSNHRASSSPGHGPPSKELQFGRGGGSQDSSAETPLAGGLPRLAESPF

Turning to `CC(=O)N[C@H](Cc1ccc2ccccc2c1)C(=O)N[C@H](Cc1ccc(Cl)cc1)C(=O)N[C@H](Cc1cccnc1)C(=O)N[C@@H](CO)C(=O)N[C@@H](CCCCNC(=O)c1cccnc1)C(=O)N[C@H](CCCCNC(=O)c1cccnc1)C(=O)N[C@@H](CC(C)C)C(=O)N[C@@H](CCCCNC(C)C)C(=O)N1CCC[C@H]1C(=O)N[C@H](C)C(N)=O` [Antide, reference compound] (Ac-[d2Nal][dPhe(4-Cl)][d3Pal]SK(Nicotinoyl)[dK](Nicotinoyl)L[Lys(iPr)]P[dA]-NH2), the IC50 in data set [1] (setting [7]) stood at 0.15 ± 0.02 nM.

With `Cc1cc2c(cc1Cc1ccc(C(=O)NC[C@H]3CC[C@H](CNC(=N)N)CC3)o1)C(C)(C)CCC2(C)C` [Compound 10], the figures for the IC50 in data set [2] and in data set [1] (setting [7]) were 6.6 µM and 1500 ± 480 nM, respectively.

For the compound `Cc1cc2c(cc1Cc1ccc(C(=O)NCC3CCCC(CNc4nccc(NCC5CCCO5)n4)C3)o1)C(C)(C)CCC2(C)C` (stereo not shown) [Compound 11], the IC50 was 3.2 µM in data set [2] and 320 ± 10 nM in data set [1] (setting [7]). In data set [3], the Ki was 150 nM.

In the case of `Cc1cc2c(cc1Cc1ccc(C(=O)NC[C@H]3CC[C@H](C(=O)O)CC3)o1)C(C)(C)CCC2(C)C` [Compound 12], the IC50 was 10 µM in data set [2] and 10400 ± 3000 nM in data set [1] (setting [7]). In addition, in data set [3], the Ki amounted to 1400 nM.

On to `Cc1cnc(CNC(=O)c2ccc(Cc3cc4c(cc3C)C(C)(C)CCC4(C)C)o2)cn1` [Compound 13], for which the values for the IC50 in data set [2] and in data set [1] (setting [7]) were 7.9 µM and 530 ± 100 nM, respectively. The compound also returned a Ki in data set [3] of more than 3200 nM.

As to `COc1cccc(OC)c1NC(=O)c1ccc(Cc2cc3c(cc2C)C(C)(C)CCC3(C)C)o1` [Compound 20], the results for the IC50 in data set [2] and in data set [1] (read-out: bGnRH IC50) were 6.7 µM and 130 nM, respectively. For the same compound, the Ki in data set [2] is 6.7 µM; in data set [3] it was more than 3200 nM. The same compound came in with a Kb in data set [4] (setting [8]) of 9 nM.

As to `Cc1cc2c(cc1Cc1ccc(C(=O)NCc3nc4ccccc4[nH]3)o1)C(C)(C)CCC2(C)C` [Compound 48], the results for the concentration for half-maximal inhibition (IC50) in data set [2] and in data set [1] (read-out: bGnRH IC50) were 6.3 µM and 490 nM, respectively. Besides, the “Human pmol/min/mg 1 μM” value in data set [5] is 289 pmol/min/mg. The “Rat male pmol/min/mg 1 μM” value in data set [6] was 2869 pmol/min/mg. For the same compound, the Ki in data set [3] was more than 3200 nM.

Regarding `Cc1cc2c(cc1Cc1ccc(C(=O)NCc3cccc(CNc4nccc(NCC5CCCO5)n4)c3)o1)C(C)(C)CCC2(C)C` (stereo not shown) [Compound 70], in data set [5], the “Human pmol/min/mg 1 μM” value came out at 311 pmol/min/mg. The “Rat male pmol/min/mg 1 μM” value in data set [6] is 2393 pmol/min/mg. In data set [4] (setting [8]), the “GnRH functional (rat)” value is “Antag- onist (rat)” and the Kb was determined as 8 nM. Besides, the IC50 in data set [1] (read-out: bGnRH IC50) was 43 nM.

On to `COc1cc(OC)c(NC(=O)c2ccc(Cc3cc4c(cc3C)C(C)(C)CCC4(C)C)o2)c(OC)c1` [Compound 134], for which, in data set [5], the “Human pmol/min/mg 1 μM” value is 630 pmol/min/mg. Also, the “Rat male pmol/min/mg 1 μM” value in data set [6] turned out to be 3909 pmol/min/mg. In data set [4] (rat, pH (microphysiometry)), this compound had a Kb of 13 nM. In data set [3], this compound came in with a Ki of 2400 nM.

With `Cc1cc2c(cc1Cc1ccc(C(=O)NCc3cccc(CNc4ccnc(NC[C@@H]5CCCO5)n4)c3)o1)C(C)(C)CCC2(C)C` [Compound 136], the “Human pmol/min/mg 1 μM” value in data set [5] came out at 191 pmol/min/mg. Moreover, the “Rat male pmol/min/mg 1 μM” value in data set [6] came to 4437 pmol/min/mg. Also, in data set [4] (GGH3 cells, one experiment), the “effect on GnRH dose-response curves, extracellular acidification rate” value was “rightward shift in the dose-response curves to GnRH without decreasing the maximum response to GnRH”. In data set [4] (rat, pH (microphysiometry)), this compound had a Kb of 8 nM. In data set [3], this compound registered a Ki of 160 nM.

Consider `COc1cc(OC)c(NC(=O)c2ccc(Cc3cc4c(cc3OC)C(C)(C)CCC4(C)C)o2)c(OC)c1` [Compound 169], for which the “Human pmol/min/mg 1 μM” value in data set [5] came to 589 pmol/min/mg. Moreover, in data set [6], the “Rat male pmol/min/mg 1 μM” value is given as 3320 pmol/min/mg. The Kb in data set [4] (setting [8]) stood at 17 nM. The Ki in data set [3] was 3400 nM.

Turning to `COc1cc(OC)c(NC(=O)c2ccc(Cc3cc4c(cc3C)C(C)(C)CCC4(C)C)o2)c(OC)c1C#N` [Compound 177], the “Human pmol/min/mg 1 μM” value in data set [5] came out at 876 pmol/min/mg. The “Rat male pmol/min/mg 1 μM” value in data set [6] amounted to 2930 pmol/min/mg. For the same compound, the Kb in data set [4] (setting [8]) was 9 nM.

Take `COc1cc(OC)c(NC(=O)c2ccc(Cc3cc4c(cc3C)CCCC4(C)C)o2)c(OC)c1` [Compound 183]: the “Human pmol/min/mg 1 μM” value in data set [5] worked out at 238 pmol/min/mg. In addition, in data set [6], the “Rat male pmol/min/mg 1 μM” value is reported as 1246 pmol/min/mg. The Kb in data set [4] (setting [8]) came to 11 nM.

On to `COc1cc(OC)c(NC(=O)c2ccc(Cc3cc(C(C)(C)C)ccc3C)o2)c(OC)c1` [Compound 200], for which, in data set [5], the “Human pmol/min/mg 1 μM” value is listed as 346 pmol/min/mg. Moreover, the “Rat male pmol/min/mg 1 μM” value in data set [6] is 595 pmol/min/mg. In addition, the Kb in data set [4] (setting [8]) turned out to be 0.9 nM.

Broadly, the IC50 is the concentration needed to halve the response being measured. The Ki is the equilibrium dissociation constant of an inhibitor or competing ligand from its target. A high value points to weaker binding.
